Measurements reported in the kinase profiling compilation of Christmann-Franck et al. (2016).

How the values were obtained:
Assay in all cases: radiometric filter-binding kinase assay
[1] = target: AURKB (human) (UniProt Q96GD4)
[2] = target: MAP3K9 (human) (UniProt P80192)
[3] = target: MYLK (human) (UniProt Q15746)
[4] = target: YES1 (human) (UniProt P07947)
[5] = target: MAP3K1 (human) (UniProt Q13233)
[6] = target: AURKA (human) (UniProt O14965)
[7] = target: MAPK9 (human) (UniProt P45984)
[8] = target: CSNK1D (human) (UniProt P48730)
[9] = target: HIPK2 (human) (UniProt Q9H2X6)
[10] = target: GCK (human) (UniProt Q12851)
[11] = target: MAP2K2 (human) (UniProt P36507)
MAP2K2 (human), sequence (P36507 whole entry, looked up): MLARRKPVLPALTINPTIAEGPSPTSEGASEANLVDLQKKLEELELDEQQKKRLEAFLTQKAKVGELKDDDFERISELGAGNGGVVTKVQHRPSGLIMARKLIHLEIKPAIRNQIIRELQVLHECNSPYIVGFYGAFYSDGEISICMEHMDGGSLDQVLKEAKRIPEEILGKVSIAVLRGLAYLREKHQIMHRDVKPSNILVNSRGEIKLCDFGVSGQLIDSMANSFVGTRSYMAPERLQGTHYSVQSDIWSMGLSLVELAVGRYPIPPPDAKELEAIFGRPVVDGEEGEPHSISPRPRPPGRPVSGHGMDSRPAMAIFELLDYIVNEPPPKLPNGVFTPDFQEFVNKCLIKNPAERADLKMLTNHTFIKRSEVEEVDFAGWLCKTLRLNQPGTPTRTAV

[12] = tested on: AKT2 (human), P31751 [S474D]
[13] = target: MELK (human) (UniProt Q14680)
[14] = target: MARK4 (human) (UniProt Q96L34)
[15] = target: EPHB1 (human) (UniProt P54762)
[16] = target: MAPK1 (human) (UniProt P28482)
[17] = target: TTK (human) (UniProt P33981)
TTK (human), sequence (P33981 whole entry, looked up): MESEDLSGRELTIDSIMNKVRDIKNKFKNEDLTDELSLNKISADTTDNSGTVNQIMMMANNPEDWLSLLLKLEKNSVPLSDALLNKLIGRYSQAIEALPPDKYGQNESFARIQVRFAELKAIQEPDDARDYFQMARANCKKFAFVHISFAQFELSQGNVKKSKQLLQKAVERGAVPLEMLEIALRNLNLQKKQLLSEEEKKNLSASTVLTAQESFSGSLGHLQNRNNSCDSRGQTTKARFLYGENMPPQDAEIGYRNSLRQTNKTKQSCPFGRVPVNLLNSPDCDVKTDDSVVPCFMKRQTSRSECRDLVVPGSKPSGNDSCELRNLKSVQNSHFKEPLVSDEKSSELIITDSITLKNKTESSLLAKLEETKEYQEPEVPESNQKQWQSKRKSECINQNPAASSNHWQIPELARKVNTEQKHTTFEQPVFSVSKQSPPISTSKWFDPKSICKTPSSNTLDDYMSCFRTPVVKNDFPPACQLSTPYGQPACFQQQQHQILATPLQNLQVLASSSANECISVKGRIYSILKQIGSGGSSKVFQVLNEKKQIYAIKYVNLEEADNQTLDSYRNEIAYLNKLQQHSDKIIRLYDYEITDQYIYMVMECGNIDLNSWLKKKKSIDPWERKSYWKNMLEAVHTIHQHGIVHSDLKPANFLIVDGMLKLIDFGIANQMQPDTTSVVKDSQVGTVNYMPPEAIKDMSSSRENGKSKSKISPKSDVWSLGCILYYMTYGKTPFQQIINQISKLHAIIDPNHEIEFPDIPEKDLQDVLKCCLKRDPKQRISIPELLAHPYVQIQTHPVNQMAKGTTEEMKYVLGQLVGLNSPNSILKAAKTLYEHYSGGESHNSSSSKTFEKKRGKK

[18] = target: PRKCZ (human) (UniProt Q05513)
[19] = tested on: PAK2 (human), Q13177 [T402E]
[20] = target: MAPK13 (human) (UniProt O15264)
[21] = target: SYK (human) (UniProt P43405)
[22] = target: MAP3K5 (human) (UniProt Q99683)
[23] = target: HIPK1 (human) (UniProt Q86Z02)
[24] = target: EEF2K (human) (UniProt O00418)
[25] = target: SRC (human) (UniProt P12931)
[26] = target: GSK3B (human) (UniProt P49841)
GSK3B (human), sequence (P49841 whole entry, looked up): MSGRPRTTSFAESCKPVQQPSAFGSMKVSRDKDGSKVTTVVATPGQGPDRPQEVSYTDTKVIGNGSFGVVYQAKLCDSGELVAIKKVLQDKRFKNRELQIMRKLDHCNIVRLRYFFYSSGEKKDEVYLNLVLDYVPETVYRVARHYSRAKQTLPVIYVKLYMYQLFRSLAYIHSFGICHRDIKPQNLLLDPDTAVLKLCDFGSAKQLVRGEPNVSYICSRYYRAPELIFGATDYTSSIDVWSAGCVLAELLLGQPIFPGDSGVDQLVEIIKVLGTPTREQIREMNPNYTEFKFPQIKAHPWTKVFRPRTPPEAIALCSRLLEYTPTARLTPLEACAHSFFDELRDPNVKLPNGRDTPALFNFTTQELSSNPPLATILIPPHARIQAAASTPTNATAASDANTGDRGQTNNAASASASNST

[27] = target: EPHB4 (human) (UniProt P54760)
[28] = target: FLT1 (human) (UniProt P17948)
[29] = target: PAK6 (human) (UniProt Q9NQU5)
[30] = target: FGFR1 (human) (UniProt P11362)
FGFR1 (human), sequence (P11362 whole entry, looked up): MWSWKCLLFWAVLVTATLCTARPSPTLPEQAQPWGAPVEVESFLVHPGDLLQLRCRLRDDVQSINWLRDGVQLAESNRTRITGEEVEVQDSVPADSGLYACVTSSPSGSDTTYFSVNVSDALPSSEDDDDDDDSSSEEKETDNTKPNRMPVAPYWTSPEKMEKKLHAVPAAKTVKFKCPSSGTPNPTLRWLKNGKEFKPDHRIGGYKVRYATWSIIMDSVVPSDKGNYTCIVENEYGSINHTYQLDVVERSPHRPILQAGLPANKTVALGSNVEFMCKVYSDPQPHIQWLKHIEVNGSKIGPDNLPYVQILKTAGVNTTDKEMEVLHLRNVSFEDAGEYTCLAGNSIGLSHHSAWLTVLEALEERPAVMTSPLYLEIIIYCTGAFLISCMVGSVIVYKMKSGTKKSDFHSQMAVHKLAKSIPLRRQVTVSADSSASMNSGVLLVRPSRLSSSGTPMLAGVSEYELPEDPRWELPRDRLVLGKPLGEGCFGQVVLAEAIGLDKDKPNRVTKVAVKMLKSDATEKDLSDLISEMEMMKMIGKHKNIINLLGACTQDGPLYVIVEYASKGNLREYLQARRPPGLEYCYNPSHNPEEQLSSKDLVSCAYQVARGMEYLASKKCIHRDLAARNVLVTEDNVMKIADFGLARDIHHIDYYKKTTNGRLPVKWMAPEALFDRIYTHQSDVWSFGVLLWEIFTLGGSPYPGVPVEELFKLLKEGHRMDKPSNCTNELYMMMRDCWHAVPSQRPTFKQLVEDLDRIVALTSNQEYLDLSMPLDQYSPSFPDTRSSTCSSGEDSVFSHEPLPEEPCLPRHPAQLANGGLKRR

[31] = target: IGF1R (human) (UniProt P08069)
[32] = target: CHEK1 (human) (UniProt O14757)
[33] = target: PKN2 (human) (UniProt Q16513)
[34] = target: MAPK10 (human) (UniProt P53779)
[35] = target: STK11 CAB39 STRADA (human) (UniProt Q9Y376+Q7RTN6+Q15831)
[36] = target: TAOK1 (human) (UniProt Q7L7X3)

MYLK (human), sequence (Q15746 whole entry, looked up): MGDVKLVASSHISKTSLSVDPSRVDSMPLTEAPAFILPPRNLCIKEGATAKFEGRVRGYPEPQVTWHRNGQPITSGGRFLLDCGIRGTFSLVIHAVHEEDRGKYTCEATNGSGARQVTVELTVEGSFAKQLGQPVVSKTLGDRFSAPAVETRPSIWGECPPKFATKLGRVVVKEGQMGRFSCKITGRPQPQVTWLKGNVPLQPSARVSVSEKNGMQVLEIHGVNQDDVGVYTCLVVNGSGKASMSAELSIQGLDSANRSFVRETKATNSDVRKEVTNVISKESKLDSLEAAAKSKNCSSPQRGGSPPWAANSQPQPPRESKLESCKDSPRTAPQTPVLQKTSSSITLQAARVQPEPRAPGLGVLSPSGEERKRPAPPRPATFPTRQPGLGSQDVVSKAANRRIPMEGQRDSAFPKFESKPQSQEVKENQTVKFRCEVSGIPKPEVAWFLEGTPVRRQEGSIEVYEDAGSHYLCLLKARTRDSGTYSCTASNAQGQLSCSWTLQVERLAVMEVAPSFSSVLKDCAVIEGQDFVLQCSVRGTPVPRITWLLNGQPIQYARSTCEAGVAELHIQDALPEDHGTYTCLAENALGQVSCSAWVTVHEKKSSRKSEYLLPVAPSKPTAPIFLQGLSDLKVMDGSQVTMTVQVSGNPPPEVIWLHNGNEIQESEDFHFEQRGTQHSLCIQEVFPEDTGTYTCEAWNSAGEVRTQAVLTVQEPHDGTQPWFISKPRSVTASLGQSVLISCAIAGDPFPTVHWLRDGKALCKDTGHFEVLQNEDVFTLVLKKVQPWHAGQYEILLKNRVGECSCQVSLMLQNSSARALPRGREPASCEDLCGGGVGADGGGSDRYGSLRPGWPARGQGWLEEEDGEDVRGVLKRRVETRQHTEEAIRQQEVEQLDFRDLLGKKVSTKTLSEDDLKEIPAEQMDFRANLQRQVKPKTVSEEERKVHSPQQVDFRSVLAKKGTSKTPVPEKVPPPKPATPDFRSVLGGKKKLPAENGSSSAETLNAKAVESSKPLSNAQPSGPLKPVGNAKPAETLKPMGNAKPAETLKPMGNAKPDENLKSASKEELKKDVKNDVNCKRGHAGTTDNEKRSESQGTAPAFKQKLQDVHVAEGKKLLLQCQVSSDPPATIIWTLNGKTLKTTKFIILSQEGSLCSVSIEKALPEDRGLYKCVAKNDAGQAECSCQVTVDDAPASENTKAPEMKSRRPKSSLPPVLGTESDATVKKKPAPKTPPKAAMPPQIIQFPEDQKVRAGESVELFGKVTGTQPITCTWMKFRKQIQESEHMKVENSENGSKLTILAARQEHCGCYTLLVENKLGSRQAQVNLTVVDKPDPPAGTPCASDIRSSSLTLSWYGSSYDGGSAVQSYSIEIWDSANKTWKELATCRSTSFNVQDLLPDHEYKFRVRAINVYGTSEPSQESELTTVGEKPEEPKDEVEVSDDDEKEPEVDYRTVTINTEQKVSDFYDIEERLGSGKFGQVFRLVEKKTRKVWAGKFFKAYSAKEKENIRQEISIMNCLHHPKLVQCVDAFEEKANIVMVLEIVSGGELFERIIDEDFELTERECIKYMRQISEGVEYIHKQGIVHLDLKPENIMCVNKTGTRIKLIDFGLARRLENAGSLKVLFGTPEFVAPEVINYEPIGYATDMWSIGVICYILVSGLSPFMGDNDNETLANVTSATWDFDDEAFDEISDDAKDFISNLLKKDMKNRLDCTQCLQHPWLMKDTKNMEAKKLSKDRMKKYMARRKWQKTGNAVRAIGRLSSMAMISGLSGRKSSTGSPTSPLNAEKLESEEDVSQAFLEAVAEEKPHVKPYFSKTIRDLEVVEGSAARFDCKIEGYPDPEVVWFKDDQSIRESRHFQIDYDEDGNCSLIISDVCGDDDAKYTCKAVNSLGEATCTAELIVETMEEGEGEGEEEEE
AURKB (human), sequence (Q96GD4 whole entry, looked up): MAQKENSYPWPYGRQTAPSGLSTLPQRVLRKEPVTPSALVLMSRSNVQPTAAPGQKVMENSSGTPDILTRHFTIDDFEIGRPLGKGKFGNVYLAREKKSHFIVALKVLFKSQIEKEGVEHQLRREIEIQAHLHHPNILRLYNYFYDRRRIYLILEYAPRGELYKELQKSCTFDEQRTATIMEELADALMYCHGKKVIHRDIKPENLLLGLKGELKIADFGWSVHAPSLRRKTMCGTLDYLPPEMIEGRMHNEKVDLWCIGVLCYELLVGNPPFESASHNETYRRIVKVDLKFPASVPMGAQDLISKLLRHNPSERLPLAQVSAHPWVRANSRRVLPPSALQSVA

Work on `O=C(NCCCNc1nc(Nc2cccc(CN3CCOCC3)c2)ncc1C1CC1)C1CCC1` yielded a residual activity ([1]; compound 0.1 µM) of 80%, a residual activity ([1]; compound 1.0 µM) of 54% and a residual activity ([2]; compound 0.1 µM) of 40%. For the same compound, the residual activity ([2]; compound 1.0 µM) was 16%, the residual activity ([3]; compound 0.1 µM) was 87% and the residual activity ([3]; compound 1.0 µM) was 103%. It also gave a residual activity ([4]; compound 0.1 µM) of 113%, a residual activity ([4]; compound 1.0 µM) of 71% and a residual activity ([5]; compound 0.1 µM) of 115%. It also gave a residual activity ([5]; compound 1.0 µM) of 137%, a residual activity ([6]; compound 0.1 µM) of 87% and a residual activity ([6]; compound 1.0 µM) of 29%. The residual activity ([7]; compound 0.1 µM) was 97%, the residual activity ([7]; compound 1.0 µM) was 106% and the residual activity ([8]; compound 0.1 µM) was 99%. For the same compound, the residual activity ([8]; compound 1.0 µM) was 66%, the residual activity ([9]; compound 0.1 µM) was 95% and the residual activity ([9]; compound 1.0 µM) was 95%. It also gave a residual activity ([10]; compound 0.1 µM) of 77%, a residual activity ([10]; compound 1.0 µM) of 64% and a residual activity ([11]; compound 0.1 µM) of 106%. The residual activity ([11]; compound 1.0 µM) was 75%, the residual activity ([12]; compound 0.1 µM) was 99% and the residual activity ([12]; compound 1.0 µM) was 108%. The residual activity ([13]; compound 0.1 µM) was 43%, the residual activity ([13]; compound 1.0 µM) was 26% and the residual activity ([14]; compound 0.1 µM) was 33%. For the same compound, the residual activity ([14]; compound 1.0 µM) was 29%, the residual activity ([15]; compound 0.1 µM) was 107% and the residual activity ([15]; compound 1.0 µM) was 108%. The residual activity ([16]; compound 0.1 µM) was 111%, the residual activity ([16]; compound 1.0 µM) was 110% and the residual activity ([17]; compound 0.1 µM) was 94%. The residual activity ([17]; compound 1.0 µM) was 74%, the residual activity ([18]; compound 0.1 µM) was 90% and the residual activity ([18]; compound 1.0 µM) was 95%. It also gave a residual activity ([19]; compound 0.1 µM) of 101%, a residual activity ([19]; compound 1.0 µM) of 92% and a residual activity ([20]; compound 0.1 µM) of 88%. It also gave a residual activity ([20]; compound 1.0 µM) of 90%, a residual activity ([21]; compound 0.1 µM) of 109% and a residual activity ([21]; compound 1.0 µM) of 93%. The residual activity ([22]; compound 0.1 µM) was 105%, the residual activity ([22]; compound 1.0 µM) was 88% and the residual activity ([23]; compound 0.1 µM) was 96%. It also gave a residual activity ([23]; compound 1.0 µM) of 94%, a residual activity ([24]; compound 0.1 µM) of 98% and a residual activity ([24]; compound 1.0 µM) of 110%. For the same compound, the residual activity ([25]; compound 0.1 µM) was 88%, the residual activity ([25]; compound 1.0 µM) was 70% and the residual activity ([26]; compound 0.1 µM) was 95%. The residual activity ([26]; compound 1.0 µM) was 96%, the residual activity ([27]; compound 0.1 µM) was 101% and the residual activity ([27]; compound 1.0 µM) was 117%. The residual activity ([28]; compound 0.1 µM) was 87%, the residual activity ([28]; compound 1.0 µM) was 74% and the residual activity ([29]; compound 0.1 µM) was 87%. It also gave a residual activity ([29]; compound 1.0 µM) of 84%, a residual activity ([30]; compound 0.1 µM) of 83% and a residual activity ([30]; compound 1.0 µM) of 63%. It also gave a residual activity ([31]; compound 0.1 µM) of 90%, a residual activity ([31]; compound 1.0 µM) of 105% and a residual activity ([32]; compound 0.1 µM) of 93%. It also gave a residual activity ([32]; compound 1.0 µM) of 57%, a residual activity ([33]; compound 0.1 µM) of 87% and a residual activity ([33]; compound 1.0 µM) of 66%. For the same compound, the residual activity ([34]; compound 0.1 µM) was 110%, the residual activity ([34]; compound 1.0 µM) was 97% and the residual activity ([35]; compound 0.1 µM) was 109%. For the same compound, the residual activity ([35]; compound 1.0 µM) was 118%, the residual activity ([36]; compound 0.1 µM) was 78% and the residual activity ([36]; compound 1.0 µM) was 71%.
